# Test results: patent US7030134B2, “Pyrazolopyridinyl pyridine and pyrimidine therapeutic compounds” (SmithKline Beecham Corporation, priority 2001, dated 2006)
# Tested on: HSV-1
# Test: HSV-1 replication in infected Vero 76 cells, DNA hybridization capture assay
# Format: cell-based, herpes simplex virus 1
# Conditions: Human alphaherpesvirus 1; HSV-1 (MOI=0.001) in Vero 76 cells, 40–48 hours incubation, HSV DNA hybridization chemiluminescence readout; read-out: IC50
# Method: Vero 76 cells were maintained in MEM with Earle's salts, L-glutamine, 8% FBS (Hyclone, A-1111-L) and 100 units/mL Penicillin-100 μg/mL Streptomycin. For assay conditions, FBS was reduced to 2%. Cells are seeded into 96-well tissue culture plates at a density of 5×10^4 cells/well after being incubated for 45 min at 37° C. in the presence of HSV-1 or HSV-2 (MOI=0.001). Test compounds are added to the wells and the plates are incubated at 37° C. for 40–48 hours. Cell lysates are prepared as follows: media was removed and replaced with 150 μL/well 0.2 N NaOH with 1% Igepal CA 630 or NP-40. Plates were incubated up to 14 days at room temperature in a humidified chamber to prevent evaporation.
# For the detection probe, a gel-purified, digoxigenin-labeled, […] PCR fragment of the HSV UL-15 sequence was utilized. PCR conditions included 0.5 μM primers, 180 μM dTTP, 20 μM dUTP-digoxigenin (Boehringer Mannheim 1558706), 200 μM each of dATP, dCTP, and dGTP, 1×PCR Buffer II (Perkin Elmer), 2.5 mM MgCl2, 0.025 units/μL of AmpliTaq Gold polymerase (Perkin Elmer), and 5 ng of gel-purified HSV DNA per 100 μL. Extension conditions were 10 min at 95° C., followed by 30 cycles of 95° C. for 1 min, 55° C. for 30 sec, and 72° C. for 2 min. The amplification was completed with a 10-min incubation at 72° C. Primers were selected to amplify a 728 bp probe spanning a section of the HSV1 UL 15 open reading frame (nucleotides 249–977). Single-stranded transcripts were purified with Promega M13 Wizard kits. The final product was mixed 1:1 with a mixture of 6 M GuSCN, 100 mM EDTA and 200 μg/mL herring sperm DNA and stored at 4° C.
# The capture DNA plasmid (HSV UL13 region in pUC) was linearized by cutting with Xba I, denatured for 15 min at 95° C. and diluted immediately into Reacti-Bind DNA Coating Solution (Pierce, 17250, diluted 1:1 with TE buffer, pH 8) at 1 ng/μL 75 μL/well were added to Corning (#3922 or 9690) white 96-well plates and incubated at room temperature for at least 4 hrs before washing twice with 300 μL/well 0.2×SSC/0.05% Tween-20 (SSC/T buffer). The plates were then incubated overnight at room temperature with 150 μL/well 0.2 N NaOH, 1% IGEPAL and 10 μg/mL herring sperm DNA.
# Twenty-seven (27) μL of cell lysate was combined with 45 μL of hybridization solution (final concentration:3M GuSCN, 50 mM EDTA, 100 μg/ml salmon sperm DNA, 5× Denhardt's solution, 0.25×APE, and 5 ng of the digoxigenin-labeled detection probe). APE is 1.5 M NH4-acetate, 0.15 M NH4H2 phosphate, and 5 mM EDTA adjusted to pH 6.0. Mineral oil (50 μL) was added to prevent evaporation. The hybridization plates were incubated at 95° C. for 10 minutes to denature the DNA, then incubated at 42° C. overnight. The wells were washed 6× with 300 μL/well SSC/T buffer then incubated with 75 μL/well anti-digoxigenin-HRP-conjugated antibody (Boehringer Mannheim 1207733, 1:5000 in TE) for 30 min at room temperature. The wells were washed 6× with 300 μL/well with PBS/0.05% Tween-20 before 75 μL/well SuperSignal LBA substrate (Pierce) was added. The plates were incubated at room temperature for 30 minutes and chemiluminescence was measured in a Wallac Victor reader.
# The following results were obtained for HSV-1.
row,IC50,Compound
1,5.3 µM,"Fc1ccc(-c2nn3c(NC4CCCC4)c(C(F)(F)F)ccc3c2-c2ccnc(N3CCCC3)n2)cc1 [Example 1, N-Cyclopentyl-2-(4-fluorophenyl)-3-[2-(1-pyrrolidinyl)-4-pyrimidinyl)-6-(trifluoromethyl)pyrazolo[1,5-a]pyridin-7-amine]"
2,3.3 µM,"Fc1ccc(-c2nn3c(NC4CCCC4)c(C(F)(F)F)ccc3c2-c2ccnc(NC3CCCC3)n2)cc1 [Example 2, N-Cyclopentyl-3-[2-(cyclopentylamino)-4-pyrimidinyl]-2-(4-fluorophenyl)-6-(trifluoromethyl)pyrazolo[1,5-a]pyridin-7-amine]"
3,6.3 µM,"CCOC(=O)c1ccc2c(-c3ccnc(NC4CCCC4)n3)c(-c3ccc(F)cc3)nn2c1NC1CCCC1 [Example 3, Ethyl 7-(cyclopentylamino)-3-[2-(cyclopentylamino)-4-pyrimidinyl]-2-(4-fluorophenyl)pyrazolo[1,5-a]pyridine-6-carboxylate]"
4,0.5 µM,"O=C(O)c1ccc2c(-c3ccnc(NC4CCCC4)n3)c(-c3ccc(F)cc3)nn2c1NC1CCCC1 [Example 4, 7-(Cyclopentylamino)-3-[2-(cyclopentylamino)-4-pyrimidinyl]-2-(4-fluorophenyl)pyrazolo[1,5-a]pyridine-6-carboxylic acid]"
5,4.1 µM,"O=C(c1ccc2c(-c3ccnc(NC4CCCC4)n3)c(-c3ccc(F)cc3)nn2c1NC1CCCC1)N1CCCC1 [Example 5, N-Cyclopentyl-3-[2-(cyclopentylamino)-4-pyrimidinyl]-2-(4-fluorophenyl)-6-(1-pyrrolidinylcarbonyl)pyrazolo[1,5-a]pyridin-7-amine]"
6,4 µM,"CN(C)C(=O)c1ccc2c(-c3ccnc(NC4CCCC4)n3)c(-c3ccc(F)cc3)nn2c1NC1CCCC1 [Example 6, 7-(Cyclopentylamino)-3-[2-(cyclopentylamino)-4-pyrimidinyl]-2-(4-fluorophenyl)-N,N-dimethylpyrazolo[1,5-a]pyridine-6-carboxamide]"
7,1 µM,"O=C(NO)c1ccc2c(-c3ccnc(NC4CCCC4)n3)c(-c3ccc(F)cc3)nn2c1NC1CCCC1 [Example 7, 7-(Cyclopentylamino)-3-[2-(cyclopentylamino)-4-pyrimidinyl]-2-(4-fluorophenyl)-N-hydroxypyrazolo[1,5-a]pyridine-6-carboxamide]"
8,5 µM,"O=C(NCCN1CCOCC1)c1ccc2c(-c3ccnc(NC4CCCC4)n3)c(-c3ccc(F)cc3)nn2c1NC1CCCC1 [Example 8, 7-(Cyclopentylamino)-3-[2-(cyclopentylamino)-4-pyrimidinyl]-2-(4-fluorophenyl)-N-[2-(4-morpholinyl)ethyl]pyrazolo[1,5-a]pyridine-6-carboxamide]"
9,0.5 µM,"O=C(NCCCn1ccnc1)c1ccc2c(-c3ccnc(NC4CCCC4)n3)c(-c3ccc(F)cc3)nn2c1NC1CCCC1 [Example 9, 7-(Cyclopentylamino)-3-[2-(cyclopentylamino)-4-pyrimidinyl]-2-(4-fluorophenyl)-N-[3-(1H-imidazol-1-yl)propyl]pyrazolo[1,5-a]pyridine-6-carboxamide]"
10,4.2 µM,"O=C(NC(CO)CO)c1ccc2c(-c3ccnc(NC4CCCC4)n3)c(-c3ccc(F)cc3)nn2c1NC1CCCC1 [Example 10, 7-(Cyclopentylamino)-3-[2-(cyclopentylamino)-4-pyrimidinyl]-2-(4-fluorophenyl)-N-[2-hydroxy-1-(hydroxymethyl)ethyl]pyrazolo[1,5-a]pyridine-6-carboxamide]"
11,0.97 µM,"OCc1ccc2c(-c3ccnc(NC4CCCC4)n3)c(-c3ccc(F)cc3)nn2c1NC1CCCC1 [Example 11, [7-(Cyclopentylamino)-3-[2-(cyclopentylamino)-4-pyrimidinyl]-2-(4-fluorophenyl)pyrazolo[1,5-a]pyridin-6-yl]methanol]"
12,7 µM,"Fc1ccc(-c2nn3c(Cl)cc(Cl)cc3c2-c2ccnc(NC3CCCC3)n2)cc1 [Example 12, N-Cyclopentyl-4-[5,7-dichloro-2-(4-fluorophenyl)pyrazolo[1,5-a]pyridin-3-yl]-2-pyrimidinamine]"
